According to ChEMBL document CHEMBL3352337, “Scaffold-switching: an exploration of 5,6-fused bicyclic heteroaromatics systems to afford antituberculosis activity akin to the imidazo[1,2-a]pyridine-3-carboxylates” (Bioorg Med Chem Lett, 2014):
In brackets after ≈: the same amount, converted by molar mass.

Columns and labels:
[1] = system: Mycobacterium tuberculosis; test: Antitubercular activity against Mycobacterium tuberculosis H37Rv ATCC 27294 in glycerol-alanine-salts medium after 7 days by Microplate Alamar Blue assay; type: functional; conditions: H37Rv ATCC 27294, 168 h
[2] = system: Mycobacterium tuberculosis; test: Antitubercular activity against Mycobacterium tuberculosis H37Rv ATCC 27294 in 7H12 medium after 7 days by Microplate Alamar Blue assay; type: functional; conditions: H37Rv ATCC 27294, 168 h
[3] = system: Mycobacterium tuberculosis; test: Antitubercular activity against Mycobacterium tuberculosis H37Rv transfected with pFCA-luxAB in 7H12 medium after 10 days by low-oxygen recovery assay; type: functional; conditions: 240 h
Vero = test: Cytotoxicity against African green monkey Vero cells assessed as cell viability after 72 hrs by CellTiter 96 assay; type: cell-based; conditions: Chlorocebus sabaeus
[4] = system: Mycobacteroides abscessus; test: Antimycobacterial activity against Mycobacterium abscessus ATCC 19977 in 7H9 medium after 3 days and 4 hrs after adding resazurin dye/Tween 80 by Microplate Alamar Blue assay; type: functional
Mycobacteroides chelonae = test: Antimycobacterial activity against Mycobacterium chelonae ATCC 35752 in 7H9 medium after 3 days and 4 hrs after adding resazurin dye/Tween 80 by Microplate Alamar Blue assay; type: functional
Mycobacterium marinum = test: Antimycobacterial activity against Mycobacterium marinum ATCC 927 in 7H9 medium after 5 days and 6 hrs after adding resazurin dye/Tween 80 by Microplate Alamar Blue assay; type: functional
Mycobacterium avium = test: Antimycobacterial activity against Mycobacterium avium ATCC 15769 in 7H9 medium after 6 days and 18 hrs after adding resazurin dye/Tween 80 by Microplate Alamar Blue assay; type: functional
Mycobacterium kansasii = test: Antimycobacterial activity against Mycobacterium kansasii ATCC 12478 in 7H9 medium after 6 days and 18 hrs after adding resazurin dye/Tween 80 by Microplate Alamar Blue assay; type: functional
[5] = system: Mycolicibacterium smegmatis; test: Antimycobacterial activity against Mycobacterium smegmatis by broth microdilution assay; type: functional
Escherichia coli = test: Antimicrobial activity against Escherichia coli by broth microdilution assay; type: functional
Staphylococcus aureus = test: Antimicrobial activity against Staphylococcus aureus by broth microdilution assay; type: functional
Candida albicans = test: Antimicrobial activity against Candida albicans by broth microdilution assay; type: functional

| SMILES | MIC90 [1] | MIC90 [2] | MIC90 [3] | IC50 (Vero) | MIC [4] | MIC (Mycobacteroides chelonae) | MIC (Mycobacterium marinum) | MIC (Mycobacterium avium) | MIC (Mycobacterium kansasii) | MIC [5] | MIC (Escherichia coli) | MIC (Staphylococcus aureus) | MIC (Candida albicans) |
| --- | --- | --- | --- | --- | --- | --- | --- | --- | --- | --- | --- | --- | --- |
| Cc1cc(C)n2nc(C(=O)NCc3ccccc3)nc2n1 | 126 µM | > 128 µM | > 128 µM | > 128 µM | > 128 µM | > 128 µM | > 128 µM | > 128 µM | > 128 µM | > 128 µM | > 128 µM | > 128 µM | > 128 µM |
| Cc1cc2nc(C)c(C(=O)OCc3ccccc3)n2c(C)n1 | 1.1 µM | 1.1 µM (≈ 0.325 µg/mL) | – | – | – | – | – | – | – | – | – | – | – |
| Cc1ccc2nc(C)c(C(=O)NCc3ccccc3)n2c1 | 0.11 µM | 0.49 µM (≈ 0.137 µg/mL) | > 128 µM | > 128 µM | > 128 µM | 94 µM (≈ 26.3 µg/mL) | > 128 µM | 15.7 µM (≈ 4.39 µg/mL) | 4 µM (≈ 1.12 µg/mL) | > 128 µM | > 128 µM | > 128 µM | > 128 µM |
| Cc1ccc2nc(C)c(C(=O)OCc3ccccc3)n2c1 | 0.004 µM | 0.004 µM (≈ 0.00112 µg/mL) | – | – | – | – | – | – | – | – | – | – | – |
| Cc1cnc2nc(C)c(C(=O)NCc3ccccc3)n2c1 | 1.27 µM | 6.95 µM (≈ 1.95 µg/mL) | > 128 µM | > 128 µM | > 128 µM | > 128 µM | > 128 µM | 122 µM (≈ 34.2 µg/mL) | 18.7 µM (≈ 5.24 µg/mL) | > 128 µM | > 128 µM | > 128 µM | > 128 µM |
| Cc1ccc2nc(C)c(C(=O)NCc3ccccc3)n2n1 | 63.8 µM | > 128 µM | > 128 µM | 24.7 µM | > 128 µM | > 128 µM | > 128 µM | > 128 µM | > 128 µM | > 128 µM | > 128 µM | > 128 µM | > 128 µM |
| Cc1ccc2c(C(=O)NCc3ccccc3)c(C)[nH]c2c1 | 43.8 µM | > 128 µM | > 128 µM | > 128 µM | > 128 µM | > 128 µM | > 128 µM | > 128 µM | > 128 µM | > 128 µM | > 128 µM | > 128 µM | > 128 µM |
| Cc1ccc2c(C(=O)NCc3ccccc3)n[nH]c2c1 | 40.8 µM | > 128 µM | > 128 µM | > 128 µM | > 128 µM | > 128 µM | > 128 µM | > 128 µM | > 128 µM | > 128 µM | > 128 µM | > 128 µM | > 128 µM |
| Cc1ccn2c(C(=O)NCc3ccccc3)nnc2c1 | 101 µM | > 128 µM | > 128 µM | > 128 µM | > 128 µM | > 128 µM | > 128 µM | > 128 µM | > 128 µM | > 128 µM | > 128 µM | > 128 µM | > 128 µM |
| Cc1ccn2c(C)c(C(=O)NCc3ccccc3)nc2c1 | 70 µM | > 128 µM | > 128 µM | > 128 µM | > 128 µM | > 128 µM | > 128 µM | > 128 µM | > 128 µM | > 128 µM | > 128 µM | > 128 µM | > 128 µM |
| Cc1cnc2nc(C)c(C(=O)OCc3ccccc3)n2c1 | 1.4 µM | 1.4 µM (≈ 0.394 µg/mL) | – | – | – | – | – | – | – | – | – | – | – |
| Cc1cn2c(C(=O)OCc3ccccc3)c(C)nc2cn1 | 2.3 µM | 2.3 µM (≈ 0.647 µg/mL) | – | – | – | – | – | – | – | – | – | – | – |
| NNC(=O)c1ccncc1 [ISONIAZID] | – | – | – | – | > 500 µM | > 500 µM | > 1000 µM | > 500 µM | 9.1 µM (≈ 1.25 µg/mL) | – | – | – | – |
| COc1c(N2C[C@@H]3CCCN[C@@H]3C2)c(F)cc2c(=O)c(C(=O)O)cn(C3CC3)c12 [MOXIFLOXACIN] | – | – | – | – | 22.4 µM (≈ 8.99 µg/mL) | 0.24 µM (≈ 0.0963 µg/mL) | 12.4 µM (≈ 4.98 µg/mL) | 6.1 µM (≈ 2.45 µg/mL) | 0.12 µM (≈ 0.0482 µg/mL) | – | – | – | – |
| O=[N+]([O-])c1cn2c(n1)OC[C@@H](OCc1ccc(OC(F)(F)F)cc1)C2 [PRETOMANID] | 0.12 µM | 0.09 µM (≈ 0.0323 µg/mL) | 4.9 µM (≈ 1.76 µg/mL) | > 128 µM | – | – | – | – | – | – | – | – | – |
| CO[C@H]1/C=C/O[C@@]2(C)Oc3c(C)c(O)c4c(O)c(c(/C=N/N5CCN(C)CC5)c(O)c4c3C2=O)NC(=O)/C(C)=C\C=C\[C@H](C)[C@H](O)[C@@H](C)[C@@H](O)[C@@H](C)[C@H](OC(C)=O)[C@@H]1C [RIFAMPIN] | 0.11 µM | 0.06 µM (≈ 0.0494 µg/mL) | – | – | 162 µM (≈ 133 µg/mL) | > 100 µM | 1.2 µM (≈ 0.988 µg/mL) | < 0.78 µM | 0.03 µM (≈ 0.0247 µg/mL) | – | – | – | – |
